Read-outs that look alike come from different tables or passages of the source.
Target: T1, wild-type mouse TMEM16A (Mus musculus, UniProt Q8BHY3)
T1 construct: expressed in transfected cells; host or cells: HEK293T
T1 sequence (Q8BHY3 1-960): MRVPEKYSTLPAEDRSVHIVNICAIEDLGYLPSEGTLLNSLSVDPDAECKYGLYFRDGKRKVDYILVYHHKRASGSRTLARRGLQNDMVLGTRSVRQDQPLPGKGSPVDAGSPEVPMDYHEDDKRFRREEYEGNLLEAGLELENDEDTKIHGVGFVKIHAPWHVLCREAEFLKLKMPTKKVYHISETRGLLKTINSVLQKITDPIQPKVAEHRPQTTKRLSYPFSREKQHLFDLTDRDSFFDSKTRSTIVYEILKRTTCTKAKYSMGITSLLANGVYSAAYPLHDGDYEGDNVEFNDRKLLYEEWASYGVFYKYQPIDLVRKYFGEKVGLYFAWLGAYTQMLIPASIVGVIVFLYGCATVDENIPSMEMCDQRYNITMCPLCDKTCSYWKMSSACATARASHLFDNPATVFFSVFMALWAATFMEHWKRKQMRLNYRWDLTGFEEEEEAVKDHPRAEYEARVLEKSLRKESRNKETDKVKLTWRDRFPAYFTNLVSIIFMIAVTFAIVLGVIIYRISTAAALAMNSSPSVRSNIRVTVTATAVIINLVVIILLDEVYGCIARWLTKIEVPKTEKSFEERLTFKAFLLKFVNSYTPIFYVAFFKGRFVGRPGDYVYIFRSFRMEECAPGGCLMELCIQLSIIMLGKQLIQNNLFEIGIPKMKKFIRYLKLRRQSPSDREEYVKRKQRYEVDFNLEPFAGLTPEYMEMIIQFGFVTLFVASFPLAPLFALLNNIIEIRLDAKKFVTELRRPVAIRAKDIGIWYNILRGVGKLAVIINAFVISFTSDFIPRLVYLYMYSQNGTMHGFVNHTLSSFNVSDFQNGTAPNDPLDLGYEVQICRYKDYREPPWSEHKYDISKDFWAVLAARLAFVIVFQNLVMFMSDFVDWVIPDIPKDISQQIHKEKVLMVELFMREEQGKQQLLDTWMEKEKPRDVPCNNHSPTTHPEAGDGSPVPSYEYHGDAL
Assay: Inside-out patch recording of 1PBC block, wild-type TMEM16A
Assay type: cell-based
Description: HEK293T cells (ATCC CRL-1573) were maintained in Dulbecco’s modified Eagle’s medium (DMEM; Sigma-Aldrich) supplemented with 10 U ml^−1 penicillin, 0.1 mg ml^−1 streptomycin (Sigma-Aldrich), 2 mM L-glutamine (Sigma-Aldrich), and 10% FBS (Sigma-Aldrich) in a humidified atmosphere containing 5% CO2 at 37 °C. HEK293S GnTI^− cells (ATCC CRL-3022) were maintained in HyClone HyCell TransFx-H medium (GE Healthcare) supplemented with 10 U ml^−1 penicillin, 0.1 mg ml^−1 streptomycin, 4 mM L-glutamine, 0.15% poloxamer 188 (Sigma-Aldrich), and 1% FBS in an atmosphere containing 5% CO2 at 185 rpm at 37 °C. The ac splice variant of mouse TMEM16A (UniProt ID: Q8BHY3), mouse TMEM16B (UniProt ID: Q8CFW1), or mouse TMEM16F (UniProt ID: Q6P9J9) bearing a 3C cleavage site, a Venus YFP, a Myc tag, and a Streptavidin-binding peptide (SBP) downstream of the open reading frame in a modified pcDNA3.1 vector (Invitrogen) were used as described previously[21],[31]. Mutations were introduced using a modified QuikChange method[58] and were verified by sequencing.
HEK293T cells were transfected with 3–4 μg DNA per 6 cm Petri dish using the calcium phosphate co-precipitation method and were used within 24–96 h after transfection. Recordings were performed on inside-out patches excised from HEK293T cells expressing the construct of interest. Patch pipettes were pulled from borosilicate glass capillaries (O.D. 1.5 mm, I.D. 0.86 mm, Sutter Instrument) and were fire-polished with a microforge (Narishige) before use. Pipette resistance was typically 3–8 MΩ when filled with the recording solutions detailed below. Seal resistance was typically 4 GΩ or higher. Voltage-clamp recordings were made using Axopatch 200B, Digidata 1550, and Clampex 10.7 (Molecular Devices). Analog signals were filtered with the in-built 4-pole Bessel filter at 10 kHz and were digitized at 20 kHz. Solution exchange was achieved using a gravity-fed system through a theta glass pipette mounted on an ultra-fast piezo-driven stepper (Siskiyou). […] All recordings were performed at 20 °C.
A symmetrical ionic condition was used throughout. Stock solution with Ca^2+-EGTA contained 150 mM NaCl, 5.99 mM Ca(OH)2, 5 mM EGTA, and 10 mM HEPES at pH 7.40. Stock solution with EGTA contained 150 mM NaCl, 5 mM EGTA, and 10 mM HEPES at pH 7.40. Free Ca^2+ concentrations were adjusted by mixing the stock solutions at the required ratios calculated using the WEBMAXC program (http://web.stanford.edu/~cpatton/webmaxcS.htm). Patch pipettes were filled with the stock solution with Ca^2+-EGTA, which has a free Ca^2+ concentration of 1 mM. 1PBC (ChemBridge) stock was reconstituted in anhydrous DMSO (Sigma-Aldrich) at 100 mM and stored at −20 °C. Working solutions with 1PBC were prepared by serial dilution. Unless otherwise stated, experiments were performed at a saturating Ca^2+ concentration as shown in Supplementary Table 1 and the primary data were corrected for current rundown as described previously[21],[25].
Concentration-response relations, obtained from the ratio of the I-V plots before and after the application of the blocker, were fitted to the Hill equation,1 I/Imax=1/1+IC50/[blocker]^h where I/Imax is the normalized current responses, IC50 defines the concentration at which inhibition is at its half-maximum, and h is the Hill coefficient.

SMILES: N#Cc1c(C(F)(F)F)cc(O)n2c1nc1ccccc12 [1PBC]
- Steady-state current (normalized) (10 µM 1PBC, -60 mV, 2 µM Ca2+): -0.2628
- remaining activity at 10 µM (10 µM 1PBC, -60 mV, 2 µM Ca2+, read-out: I/Imax): 45.4%
- Steady-state current (normalized) (10 µM 1PBC, -80 mV, 2 µM Ca2+): -0.388
- remaining activity at 10 µM (10 µM 1PBC, -80 mV, 2 µM Ca2+, read-out: I/Imax): 50.6%
- Steady-state current (normalized) (10 µM 1PBC, -100 mV, 2 µM Ca2+): -0.5211
- remaining activity at 10 µM (10 µM 1PBC, -100 mV, 2 µM Ca2+, read-out: I/Imax): 54.8%
- Steady-state current (normalized) (10 µM 1PBC, -120 mV, 2 µM Ca2+): -0.6616
- remaining activity at 10 µM (10 µM 1PBC, -120 mV, 2 µM Ca2+, read-out: I/Imax): 59.1%
- Steady-state current (normalized) (10 µM 1PBC, -140 mV, 2 µM Ca2+): -0.7984
- remaining activity at 10 µM (10 µM 1PBC, -140 mV, 2 µM Ca2+, read-out: I/Imax): 62.2%
- Steady-state current (normalized) (30 µM 1PBC, 0 mV, 2 µM Ca2+): 0.0002811
- remaining activity at 30 µM (30 µM 1PBC, 0 mV, 2 µM Ca2+, read-out: I/Imax): 11.5%
- I/Imax scaled to open probability (30 µM 1PBC, 400 nM Ca2+, 80 mV): 0.04177
- I/Imax scaled to open probability (30 µM 1PBC, 800 nM Ca2+, 80 mV): 0.04061
- I/Imax scaled to open probability (30 µM 1PBC, 2 µM Ca2+, 80 mV): 0.05533
- Steady-state current (normalized) (30 µM 1PBC, 20 mV, 2 µM Ca2+): 0.01874
- remaining activity at 30 µM (30 µM 1PBC, 20 mV, 2 µM Ca2+, read-out: I/Imax): 9.63%
- Steady-state current (normalized) (30 µM 1PBC, 40 mV, 2 µM Ca2+): 0.03065
- remaining activity at 30 µM (30 µM 1PBC, 40 mV, 2 µM Ca2+, read-out: I/Imax): 8.13%
- Steady-state current (normalized) (30 µM 1PBC, 60 mV, 2 µM Ca2+): 0.03882
- remaining activity at 30 µM (30 µM 1PBC, 60 mV, 2 µM Ca2+, read-out: I/Imax): 7.03%
- Steady-state current (normalized) (30 µM 1PBC, 80 mV, 2 µM Ca2+): 0.04513
- remaining activity at 30 µM (30 µM 1PBC, 80 mV, 2 µM Ca2+, read-out: I/Imax): 6.38%
- Steady-state current (normalized) (30 µM 1PBC, 100 mV, 2 µM Ca2+): 0.0498
- remaining activity at 30 µM (30 µM 1PBC, 100 mV, 2 µM Ca2+, read-out: I/Imax): 5.86%
- Steady-state current (normalized) (30 µM 1PBC, 120 mV, 2 µM Ca2+): 0.05715
- remaining activity at 30 µM (30 µM 1PBC, 120 mV, 2 µM Ca2+, read-out: I/Imax): 5.87%
- Steady-state current (normalized) (30 µM 1PBC, 140 mV, 2 µM Ca2+): 0.0661
- remaining activity at 30 µM (30 µM 1PBC, 140 mV, 2 µM Ca2+, read-out: I/Imax): 6.08%
- Steady-state current (normalized) (30 µM 1PBC, -20 mV, 2 µM Ca2+): -0.02579
- remaining activity at 30 µM (30 µM 1PBC, -20 mV, 2 µM Ca2+, read-out: I/Imax): 13.4%
- Steady-state current (normalized) (30 µM 1PBC, -40 mV, 2 µM Ca2+): -0.06545
- remaining activity at 30 µM (30 µM 1PBC, -40 mV, 2 µM Ca2+, read-out: I/Imax): 16.9%
- Steady-state current (normalized) (30 µM 1PBC, -60 mV, 2 µM Ca2+): -0.1171
- remaining activity at 30 µM (30 µM 1PBC, -60 mV, 2 µM Ca2+, read-out: I/Imax): 20.2%
- Steady-state current (normalized) (30 µM 1PBC, -80 mV, 2 µM Ca2+): -0.1843
- remaining activity at 30 µM (30 µM 1PBC, -80 mV, 2 µM Ca2+, read-out: I/Imax): 24%
- Steady-state current (normalized) (30 µM 1PBC, -100 mV, 2 µM Ca2+): -0.264
- remaining activity at 30 µM (30 µM 1PBC, -100 mV, 2 µM Ca2+, read-out: I/Imax): 27.8%
- Steady-state current (normalized) (30 µM 1PBC, -120 mV, 2 µM Ca2+): -0.3545
- remaining activity at 30 µM (30 µM 1PBC, -120 mV, 2 µM Ca2+, read-out: I/Imax): 31.7%
- Steady-state current (normalized) (30 µM 1PBC, -140 mV, 2 µM Ca2+): -0.4476
- remaining activity at 30 µM (30 µM 1PBC, -140 mV, 2 µM Ca2+, read-out: I/Imax): 34.8%
- Steady-state current (normalized) (100 µM 1PBC, 0 mV, 2 µM Ca2+): 0.0001085
- remaining activity at 100 µM (100 µM 1PBC, 0 mV, 2 µM Ca2+, read-out: I/Imax): 4.44%
- I/Imax scaled to open probability (100 µM 1PBC, 400 nM Ca2+, 80 mV): 0.01539
- I/Imax scaled to open probability (100 µM 1PBC, 800 nM Ca2+, 80 mV): 0.01603

— PMC9120017, “Inhibition mechanism of the chloride channel TMEM16A by the pore blocker 1PBC” (Nature Communications, 2022)
